Entries after “also recorded” stand apart in the source; their conditions may differ.
Key:
androgen receptor (AR) = target: T1, androgen receptor (AR) (Homo sapiens, UniProt P10275); assay: Western blot of T47D cell lysates, AR; assay type: cell-based; settings: 5 or 10 micromolar, presence or absence of estradiol (E2)
T1 construct: endogenous in cells; host or cells: T47D
T1 sequence (P10275 1-920): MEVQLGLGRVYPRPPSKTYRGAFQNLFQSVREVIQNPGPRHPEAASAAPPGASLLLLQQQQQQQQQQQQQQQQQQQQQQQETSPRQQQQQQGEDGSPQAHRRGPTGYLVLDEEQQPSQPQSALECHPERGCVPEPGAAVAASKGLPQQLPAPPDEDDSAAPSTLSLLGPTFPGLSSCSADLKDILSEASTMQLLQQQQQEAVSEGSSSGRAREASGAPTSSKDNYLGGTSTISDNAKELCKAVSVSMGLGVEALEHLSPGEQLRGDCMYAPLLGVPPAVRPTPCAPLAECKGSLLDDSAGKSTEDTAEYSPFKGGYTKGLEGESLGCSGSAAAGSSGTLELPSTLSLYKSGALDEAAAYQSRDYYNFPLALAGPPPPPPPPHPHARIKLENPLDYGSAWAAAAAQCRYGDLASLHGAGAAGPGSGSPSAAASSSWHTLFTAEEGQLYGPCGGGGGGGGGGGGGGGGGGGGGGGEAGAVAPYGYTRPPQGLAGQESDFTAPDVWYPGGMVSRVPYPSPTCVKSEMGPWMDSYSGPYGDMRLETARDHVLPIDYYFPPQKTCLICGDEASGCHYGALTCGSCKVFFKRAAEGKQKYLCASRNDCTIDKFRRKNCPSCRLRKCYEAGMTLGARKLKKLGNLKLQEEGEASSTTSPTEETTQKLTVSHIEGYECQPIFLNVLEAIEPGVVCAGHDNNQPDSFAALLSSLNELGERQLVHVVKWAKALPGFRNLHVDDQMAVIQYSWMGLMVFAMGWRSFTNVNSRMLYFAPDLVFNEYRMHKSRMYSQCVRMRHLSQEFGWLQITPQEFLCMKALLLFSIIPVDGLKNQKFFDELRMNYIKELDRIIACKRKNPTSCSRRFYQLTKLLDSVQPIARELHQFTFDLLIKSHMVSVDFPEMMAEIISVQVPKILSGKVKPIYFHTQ
Protocol: Human prostate cancer LNCaP cells and T47D cells were plated at a density of 7×10^5 cells per 60 millimeter tissue culture dish in […] (RPMI) medium containing 10% FBS. The medium was changed to RPMI or DME medium containing 10% charcoal-stripped serum 24 hours later to deplete cellular androgens or estrogens. After another 24 hours, treatment with the test compounds began. The test dose of JC15 was 1 or 2 micromolar and the test does of JC9 was 1, 5 and 10 micromolar. LNCap cells also received dihydrotestosterone (DHT) (3 nanomolar). Control cells received a corresponding amount of the vehicle, dimethylsulfoxide (DMSO) (<0.04%) for an equivalent exposure time. Cells were incubated with JC15 for 24 or 48 hours, and were lysed in 250 microliters of 1×SDS/PAGE loading buffer. Approximately 40 micrograms of total cellular protein was loaded in each lane of a pre-cast gel (NuPAGE, Invitrogen). Protein separation and transfer were performed following the manufacturer's instructions.

LNCaP tumor cells = assay: In vivo LNCaP xenograft tumor growth in nude mice; settings: JC9 100 mg/kg/day ip three times per week, 7 weeks
Protocol: In related in vivo studies, LNCap human prostate tumor cells are xenografted by subcutaneous injection (2×10^6 per site) into nude mice. Mice are subsequently treated by intraperitoneal injection of either the vehicle solution alone as a control or the test compounds (JC9)) at a dose of 100 milligrams per kilogram body weight, three times a week for 7 weeks. Tumor volume is measured twice a week over the next 7 weeks. […] Such results can be taken as a strong indication that the suppression of AR activity and the resulting reduction of tumor growth induced by AR-degrading compounds such as JC15 or by JC9, may be translated into a practical use for treating or preventing diseases and disorders related to AR activity, such as prostate and other cancers.
Two million LNCaP tumor cells were inoculated, subcutaneously, into the left flank of nude mice. In the experimental animals, the nude mice were give an intraperitoneal (ip) injection of compound JC9 at 100 mg/kg/day three times per week or with vehicle control only. After 7 weeks of treatment the tumors were excised, weighed and compared. The tumor weight in ratio of vehicle control to JC9 was 0.694 g:0.172 g.

[1] = tested on: testosterone-induced hair growth suppression; assay: Androgen-induced alopecia model, hair re-growth in shaved mice; assay type: in vivo, C57BL/6J mice; settings: topical testosterone 1% in the morning, JC9 0.02% in the afternoon, 20 days
Protocol: C57BL/6J mice were used in this animal model for hair loss and regrowth (Uno et al. (1990) J. Cutaneous Aging & Cosm. Derm., 1: 193, which is incorporated by reference in its entirety herein). Six-week-old male mice (6 to 7 animals per group) were shaved with an electric clipper, and then treated with a hair-removal cream for 1 to 2 minutes. […] One day after hair removal, a first group of animals each received 100 microliters of a 1% testosterone solution in ethanol, applied topically to the shaved area, once each morning for twenty consecutive days. A second group of animals each received 100 microliters of vehicle (ethanol) alone, applied topically to the shaved area, once each morning for twenty consecutive days. The first group of mice (testosterone-treated) were divided further into a control group and a treatment group. Also beginning one day after hair removal, each mouse in the control group received 100 microliters of a control solution (60% ethanol, 20% propylene glycol, and 20% water) and each mouse in the treatment group received 100 microliters of the test compound, JC9 (0.02% in the same 60% ethanol, 20% propylene glycol, and 20% water solution), applied topically to the shaved area, once each afternoon for twenty consecutive days. Hair re-growth in the shaved areas was observed and photographed at 12, 15, 18, 21, and 24 days after beginning of the topical treatments.

COc1ccc(C=CC(=O)C=C(O)C=Cc2ccc(OC)c(OC)c2)cc1OC [JC9, 5-hydroxy-1,7-bis(3,4-dimethoxyphenyl)-1,4,6-heptatrien-3-one]
cellular concentration of AR (androgen receptor (AR)): decreased
reduction in tumor size compared to vehicle control (LNCaP tumor cells): 75%
tumor weight (LNCaP tumor cells): 0.172 g
hair re-growth in shaved areas [1]: rapid re-growth of hair in the shaved areas from day 10 to day 20; also recorded: hair growth on day 8 and fully re-growth of hair in the shaved areas after 20 days

— US20060084704A1, “Methods and compositions for enhancing degradation of nuclear receptor transcription factors and uses thereof” (priority 2004, published 2006)
